Patent US8614327B2 (Vertex Pharmaceuticals Incorporated, priority 2004, dated 2013)
pEC50: −log10 of the molar value.

Molecular target: T1, ΔF508-CFTR (Homo sapiens, UniProt P13569, DEL508-508)
T1 construct: expressed in transfected cells
Experiment: Membrane potential optical (FRET/VIPR) assay, identification of potentiator compounds
Type: cell-based
Details: Table 3, assay not given; for % Activity: relative efficacy
Procedure, shortened: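 Double-addition potentiator screen: compound delivered in gluconate-substituted Cl^--free medium, membrane potential followed via CC2-DMPE/DiSBAC2(3) FRET on VIPR. Cells were ΔF508-CFTR-expressing NIH3T3 mouse fibroblasts, held 2 h at 37° C. then 24 h at 27° C. before assay.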

T1 sequence (P13569 with tags, fused parts or gaps DEL508-508): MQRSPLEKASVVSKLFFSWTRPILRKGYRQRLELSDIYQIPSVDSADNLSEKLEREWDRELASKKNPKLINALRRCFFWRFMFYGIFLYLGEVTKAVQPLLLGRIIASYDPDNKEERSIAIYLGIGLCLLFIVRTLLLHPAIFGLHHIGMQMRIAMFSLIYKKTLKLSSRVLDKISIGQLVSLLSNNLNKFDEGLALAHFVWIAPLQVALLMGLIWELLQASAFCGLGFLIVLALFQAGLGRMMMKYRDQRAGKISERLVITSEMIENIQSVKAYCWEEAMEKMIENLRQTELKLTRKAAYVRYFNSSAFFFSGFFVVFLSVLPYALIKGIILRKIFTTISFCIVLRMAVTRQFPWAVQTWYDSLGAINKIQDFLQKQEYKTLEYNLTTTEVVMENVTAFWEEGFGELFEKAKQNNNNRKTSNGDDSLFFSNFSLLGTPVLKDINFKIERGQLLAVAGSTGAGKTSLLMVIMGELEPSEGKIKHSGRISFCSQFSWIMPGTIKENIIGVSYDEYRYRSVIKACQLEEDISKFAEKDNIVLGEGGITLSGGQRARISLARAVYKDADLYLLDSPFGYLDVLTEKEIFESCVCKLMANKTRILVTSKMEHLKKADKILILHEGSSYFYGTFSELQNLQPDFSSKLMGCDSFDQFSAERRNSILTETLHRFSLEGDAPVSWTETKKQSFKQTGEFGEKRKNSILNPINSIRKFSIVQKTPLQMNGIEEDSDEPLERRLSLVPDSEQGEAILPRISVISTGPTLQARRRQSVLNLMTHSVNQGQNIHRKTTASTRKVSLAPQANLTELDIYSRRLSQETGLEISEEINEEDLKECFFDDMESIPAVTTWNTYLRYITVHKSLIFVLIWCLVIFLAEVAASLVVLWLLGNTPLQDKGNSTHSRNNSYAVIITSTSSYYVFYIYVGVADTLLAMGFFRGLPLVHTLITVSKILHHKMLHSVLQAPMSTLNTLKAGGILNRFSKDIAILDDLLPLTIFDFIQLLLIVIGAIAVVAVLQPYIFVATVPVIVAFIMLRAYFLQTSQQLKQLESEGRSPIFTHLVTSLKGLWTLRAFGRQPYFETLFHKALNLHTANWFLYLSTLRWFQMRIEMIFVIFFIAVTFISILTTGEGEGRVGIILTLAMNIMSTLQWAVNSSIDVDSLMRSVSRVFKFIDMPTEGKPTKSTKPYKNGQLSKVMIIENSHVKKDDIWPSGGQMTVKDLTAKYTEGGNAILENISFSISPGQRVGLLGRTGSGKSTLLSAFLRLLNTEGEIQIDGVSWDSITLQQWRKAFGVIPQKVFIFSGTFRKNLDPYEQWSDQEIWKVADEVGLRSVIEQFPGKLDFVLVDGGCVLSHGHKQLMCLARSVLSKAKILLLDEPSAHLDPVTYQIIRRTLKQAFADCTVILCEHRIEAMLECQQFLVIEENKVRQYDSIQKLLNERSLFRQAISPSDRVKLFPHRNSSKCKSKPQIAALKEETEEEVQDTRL

pEC50 | % Activity | SMILES
> 5.00 | +++ (>100%) | CC(C)(C)c1ccc(O)cc1NC(=O)c1c[nH]c2ccccc2c1=O [Compound 662, N-(5-hydroxy-2-tert-butyl-phenyl)-4-oxo-1H-quinoline-3-carboxamide]
> 5.00 | ++ (between 25% to 100%) | CC(C)(C)c1cc(C(C)(C)C)c(NC(=O)c2c[nH]c3c(Cl)cccc3c2=O)cc1O [Compound 663, 8-chloro-N-(5-hydroxy-2,4-ditert-butyl-phenyl)-4-oxo-1H-quinoline-3-carboxamide]
> 5.00 | ++ (between 25% to 100%) | CC(C)(C)c1cccc(NC(=O)c2c[nH]c3ccc(F)cc3c2=O)c1 [Compound 664, 6-fluoro-4-oxo-N-(3-tert-butylphenyl)-1H-quinoline-3-carboxamide]
> 5.00 | ++ (between 25% to 100%) | CC(C)(C)c1ccc(O)cc1NC(=O)c1c[nH]c2ccc(F)cc2c1=O [Compound 665, 6-fluoro-N-(5-hydroxy-2-tert-butyl-phenyl)-4-oxo-1H-quinoline-3-carboxamide]
> 5.00 | ++ (between 25% to 100%) | COc1cc(NC(=O)c2c[nH]c3ccc(F)cc3c2=O)cc(C(F)(F)F)c1 [Compound 666, 6-fluoro-N-[3-methoxy-5-(trifluoromethyl)phenyl]-4-oxo-1H-quinoline-3-carboxamide]
> 5.00 | ++ (between 25% to 100%) | Cc1cccc2[nH]cc(C(=O)Nc3ccc(N4CC(F)(F)C[C@H]4C)cc3C(F)(F)F)c(=O)c12 [Compound 667, (R)-N-(4-(4,4-difluoro-2-methylpyrrolidin-1-yl)-2-(trifluoromethyl)phenyl)-5-methyl-4-oxo-1,4-dihydroquinoline-3-carboxamide]
> 5.00 | ++ (between 25% to 100%) | O=C(Nc1ccc(N2CCC(CO)CC2)cc1C(F)(F)F)c1c[nH]c2ccccc2c1=O [Compound 668, N-[4-[4-(hydroxymethyl)-1-piperidyl]-2-(trifluoromethyl)phenyl]-4-oxo-1H-quinoline-3-carboxamide]
> 5.00 | ++ (between 25% to 100%) | C[C@H]1CCCN1c1ccc(NC(=O)c2c[nH]c3cccc(C(F)(F)F)c3c2=O)c(C(F)(F)F)c1 [Compound 669, (S)-N-(4-(2-methylpyrrolidin-1-yl)-2-(trifluoromethyl)phenyl)-4-oxo-5-(trifluoromethyl)-1,4-dihydroquinoline-3-carboxamide]
> 5.00 | ++ (between 25% to 100%) | O=C(Nc1ccc(N2CCC[C@@H]2CO)cc1C(F)(F)F)c1c[nH]c2ccccc2c1=O [Compound 670, (R)-N-(4-(2-(hydroxymethyl)pyrrolidin-1-yl)-2-(trifluoromethyl)phenyl)-4-oxo-1,4-dihydroquinoline-3-carboxamide]
> 5.00 | ++ (between 25% to 100%) | Nc1nc2ccc(NC(=O)c3c[nH]c4ccccc4c3=O)cc2s1 [Compound 671, N-(2-aminobenzothiazol-6-yl)-4-oxo-1H-quinoline-3-carboxamide]
> 5.00 | ++ (between 25% to 100%) | CC(C)(C)c1cc(C(C)(C)C)c(NC(=O)c2c[nH]c3cc(F)c(F)cc3c2=O)cc1O [Compound 672, 6,7-difluoro-N-(5-hydroxy-2,4-ditert-butyl-phenyl)-4-oxo-1H-quinoline-3-carboxamide]
> 5.00 | ++ (between 25% to 100%) | O=C(Nc1ccc(N2CCN(CCO)CC2)cc1C(F)(F)F)c1c[nH]c2ccccc2c1=O [Compound 673, N-[4-[4-(2-hydroxyethyl)piperazin-1-yl]-2-(trifluoromethyl)phenyl]-4-oxo-1H-quinoline-3-carboxamide]
 | ++ (between 25% to 100%) | O=C(Nc1ccc(N2CCCC2)cc1)c1c[nH]c2ccccc2c1=O [Compound 674, 4-oxo-N-(4-pyrrolidin-1-ylphenyl)-1H-quinoline-3-carboxamide]
> 5.00 | ++ (between 25% to 100%) | COc1cc(N2CCCC2)ccc1NC(=O)c1c[nH]c2ccccc2c1=O [Compound 675, N-(2-methoxy-4-pyrrolidin-1-yl-phenyl)-4-oxo-1H-quinoline-3-carboxamide]
> 5.00 | ++ (between 25% to 100%) | Cc1ccc(C(F)(F)F)cc1NC(=O)c1c[nH]c2cccc(O)c2c1=O [Compound 676, 5-hydroxy-N-[2-methyl-5-(trifluoromethyl)phenyl]-4-oxo-1H-quinoline-3-carboxamide]
> 5.00 | ++ (between 25% to 100%) | CC(C)(C)c1cc(F)c(NC(=O)c2c[nH]c3cc(C#N)ccc3c2=O)cc1O [Compound 677, 7-cyano-N-(2-fluoro-5-hydroxy-4-tert-butyl-phenyl)-4-oxo-1H-quinoline-3-carboxamide]
> 5.00 | ++ (between 25% to 100%) | Cc1ccc(C(F)(F)F)cc1NC(=O)c1c[nH]c2ccc(F)cc2c1=O [Compound 678, 6-fluoro-N-[2-methyl-5-(trifluoromethyl)phenyl]-4-oxo-1H-quinoline-3-carboxamide]
> 5.00 | ++ (between 25% to 100%) | CC(C)(C)c1cc2cc[nH]c2cc1NC(=O)c1c[nH]c2ccc(O)cc2c1=O [Compound 679, 6-hydroxy-4-oxo-N-(5-tert-butyl-1H-indol-6-yl)-1H-quinoline-3-carboxamide]
> 5.00 | ++ (between 25% to 100%) | CCOc1ccc2[nH]cc(C(=O)Nc3cc4[nH]ccc4cc3C(C)(C)C)c(=O)c2c1 [Compound 681, 6-ethoxy-4-oxo-N-(5-tert-butyl-1H-indol-6-yl)-1H-quinoline-3-carboxamide]
> 5.00 | + (<25%) | CCc1cccc2c(=O)c(C(=O)Nc3ccc(C(C)C)cc3C(F)(F)F)c[nH]c12 [Compound 682, 8-ethyl-N-[4-isopropyl-2-(trifluoromethyl)phenyl]-4-oxo-1H-quinoline-3-carboxamide]
> 5.00 | ++ (between 25% to 100%) | Cc1cc(C(C)(C)C)c(O)cc1NC(=O)c1c[nH]c2ccc(F)cc2c1=O [Compound 683, 6-fluoro-N-(5-hydroxy-2-methyl-4-tert-butyl-phenyl)-4-oxo-1H-quinoline-3-carboxamide]
> 5.00 | ++ (between 25% to 100%) | C[C@@H]1CCCN1c1ccc(NC(=O)c2c[nH]c3ccc(F)cc3c2=O)c(C(F)(F)F)c1 [Compound 684, (R)-6-fluoro-N-(4-(2-methylpyrrolidin-1-yl)-2-(trifluoromethyl)phenyl)-4-oxo-1,4-dihydroquinoline-3-carboxamide]
> 5.00 | ++ (between 25% to 100%) | COc1ccc2[nH]cc(C(=O)Nc3ccc(N4[C@H](C)CC[C@H]4C)cc3C(F)(F)F)c(=O)c2c1 [Compound 685, N-(4-((2R,5R)-2,5-dimethylpyrrolidin-1-yl)-2-(trifluoromethyl)phenyl)-6-methoxy-4-oxo-1,4-dihydroquinoline-3-carboxamide]
> 5.00 | ++ (between 25% to 100%) | O=C(Nc1ccc(N2CCCCC2)cc1C(F)(F)F)c1c[nH]c2ccccc2c1=O [Compound 686, 4-oxo-N-[4-(1-piperidyl)-2-(trifluoromethyl)phenyl]-1H-quinoline-3-carboxamide]
